Source: patent publication US7452908B2, “Amide derivatives” (Banyu Pharmaceutical Co., Ltd., priority 1999, dated 2008)
pKi: −log10 of the molar value.

Key:
[1] = molecular target: T1, human m3 muscarinic acetylcholine receptor expressed in CHO cells (Homo sapiens, UniProt P20309); assay: Inhibition of [3H]-N-methylscopolamine binding to muscarinic m3 receptor; conditions: for pKi: human m3 in CHO cells, 0.2 nM [3H]-N-methylscopolamine; for Selectivity m1/m3: ratio of Ki m1 to Ki m3; for Selectivity m2/m3: ratio of Ki m2 to Ki m3; for Selectivity m4/m3: ratio of Ki m4 to Ki m3; for Selectivity m5/m3: ratio of Ki m5 to Ki m3
T1 construct: purchased Receptor Biology, Inc; host or cells: CHO cells
T1 sequence (P20309 whole entry): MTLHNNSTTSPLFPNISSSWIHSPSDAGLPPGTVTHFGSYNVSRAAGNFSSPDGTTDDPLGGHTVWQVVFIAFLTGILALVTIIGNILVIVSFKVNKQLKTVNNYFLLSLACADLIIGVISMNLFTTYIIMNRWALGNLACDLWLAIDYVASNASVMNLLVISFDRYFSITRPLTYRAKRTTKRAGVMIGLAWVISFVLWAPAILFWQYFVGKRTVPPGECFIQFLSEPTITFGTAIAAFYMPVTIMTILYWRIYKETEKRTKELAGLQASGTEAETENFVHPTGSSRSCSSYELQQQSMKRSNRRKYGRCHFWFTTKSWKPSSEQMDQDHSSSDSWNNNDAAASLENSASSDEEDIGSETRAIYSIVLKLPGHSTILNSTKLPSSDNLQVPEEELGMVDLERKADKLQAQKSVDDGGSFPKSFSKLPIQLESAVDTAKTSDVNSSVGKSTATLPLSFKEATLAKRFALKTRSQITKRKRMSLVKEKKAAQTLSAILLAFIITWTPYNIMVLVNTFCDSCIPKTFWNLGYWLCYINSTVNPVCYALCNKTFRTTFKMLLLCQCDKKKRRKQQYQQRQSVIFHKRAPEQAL
Method: (§1) These tests were performed according to a modification of the method of Hargreaves, et al. (Br. J. Pharmacol. 107: 494-501, 1992). Namely, muscarinic acetylcholine receptors of human m1, m2, m3, m4 and m5 expressed in CHO cells (Receptor Biology, Inc.) were incubated with 0.2 nM [^3H]-N-methylscopolamine (82Ci/mmol, New England Nuclear, Inc.) and a test compound to be tested in 0.5 ml of 50 mM Tris-HCl, 10 mM MgCl2, 1 mM EDTA solution (pH 7.4) for 120 minutes at room temperature (about 20-25° C.), followed by suction filtration over a glass filter (UniFilter plate-GF/C; Packard). Then the filter was washed four times with 1 ml of ice-cold Tris-HCl buffer and dried at 50° C. for an hour. After adding a scintillator (Microscinti 0; Packard), the radioactivity of [^3H]-N-methylscopolamine binding to the filter was counted with a microplate scintillation counter (TopCount™; Packard). Non-specific receptor binding of [^3H]-N-methylscopolamine was measured by adding 1 μM N-methylscopolamine.

[2] = molecular target: T2, human m5 muscarinic acetylcholine receptor expressed in CHO cells (Homo sapiens, UniProt P08912); assay: Inhibition of [3H]-N-methylscopolamine binding to muscarinic m5 receptor; conditions: 0.2 nM [3H]-N-methylscopolamine
T2 construct: purchased Receptor Biology, Inc; host or cells: CHO cells
T2 sequence (P08912 1-532): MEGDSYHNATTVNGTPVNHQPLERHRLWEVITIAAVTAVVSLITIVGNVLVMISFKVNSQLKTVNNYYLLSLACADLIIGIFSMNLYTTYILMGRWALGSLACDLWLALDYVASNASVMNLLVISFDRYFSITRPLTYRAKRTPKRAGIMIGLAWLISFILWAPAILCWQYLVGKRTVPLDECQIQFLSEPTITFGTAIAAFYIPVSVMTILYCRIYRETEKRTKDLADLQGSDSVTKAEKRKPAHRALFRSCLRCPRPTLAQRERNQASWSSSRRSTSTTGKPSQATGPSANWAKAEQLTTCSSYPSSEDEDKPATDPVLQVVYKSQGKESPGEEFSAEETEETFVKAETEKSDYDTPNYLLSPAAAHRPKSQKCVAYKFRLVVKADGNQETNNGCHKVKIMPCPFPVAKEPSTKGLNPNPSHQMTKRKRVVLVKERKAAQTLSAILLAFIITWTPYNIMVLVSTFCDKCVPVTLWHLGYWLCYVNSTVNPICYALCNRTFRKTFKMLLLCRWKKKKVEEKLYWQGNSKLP
Method: as §1

[3] = molecular target: T3, M2 receptor (Rattus norvegicus, UniProt P10980); assay: Antagonism to M2 receptor in vivo: acetylcholine-induced bradycardia reaction in rats; conditions: iv, acetylcholine (10 μg/kg) 5 minutes after test compound
T3 construct: from tissue; host or cells: whole animal, male SD rats (in vivo)
T3 sequence (P10980 1-466): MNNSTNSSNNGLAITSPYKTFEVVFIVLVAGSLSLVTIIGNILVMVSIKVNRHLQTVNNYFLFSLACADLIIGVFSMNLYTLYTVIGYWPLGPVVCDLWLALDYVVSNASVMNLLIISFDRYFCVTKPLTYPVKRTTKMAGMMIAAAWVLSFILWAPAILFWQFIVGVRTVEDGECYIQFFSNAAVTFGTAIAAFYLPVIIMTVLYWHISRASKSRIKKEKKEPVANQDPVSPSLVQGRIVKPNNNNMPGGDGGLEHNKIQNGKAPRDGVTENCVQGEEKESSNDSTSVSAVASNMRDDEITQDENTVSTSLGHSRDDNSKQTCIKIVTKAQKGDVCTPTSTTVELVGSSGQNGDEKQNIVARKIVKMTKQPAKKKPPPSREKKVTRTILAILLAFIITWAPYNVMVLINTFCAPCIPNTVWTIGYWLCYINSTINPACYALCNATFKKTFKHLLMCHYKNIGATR
Method: Male SD strain rats (weighing 300-500 g) were anesthetized with urethane (1 g/kg) and α-chloralose (50 mg/kg) administered intraperitoneally. […] In this experiment, one-dosage evaluation was conducted per one animal of the tested rats.

[4] = molecular target: T4, muscarinic M3 receptor (Rattus norvegicus, UniProt P08483); assay: Antagonism to muscarinic M3 receptor in vivo: acetylcholine-induced airway resistance-increasing reaction in rats; conditions: rat, iv, rats, acetylcholine (50 μg/kg) 5 minutes after test compound; read-out: ED50 Airway constriction M3
T4 construct: from tissue; host or cells: whole animal, male SD rats (in vivo)
T4 sequence (P08483 whole entry): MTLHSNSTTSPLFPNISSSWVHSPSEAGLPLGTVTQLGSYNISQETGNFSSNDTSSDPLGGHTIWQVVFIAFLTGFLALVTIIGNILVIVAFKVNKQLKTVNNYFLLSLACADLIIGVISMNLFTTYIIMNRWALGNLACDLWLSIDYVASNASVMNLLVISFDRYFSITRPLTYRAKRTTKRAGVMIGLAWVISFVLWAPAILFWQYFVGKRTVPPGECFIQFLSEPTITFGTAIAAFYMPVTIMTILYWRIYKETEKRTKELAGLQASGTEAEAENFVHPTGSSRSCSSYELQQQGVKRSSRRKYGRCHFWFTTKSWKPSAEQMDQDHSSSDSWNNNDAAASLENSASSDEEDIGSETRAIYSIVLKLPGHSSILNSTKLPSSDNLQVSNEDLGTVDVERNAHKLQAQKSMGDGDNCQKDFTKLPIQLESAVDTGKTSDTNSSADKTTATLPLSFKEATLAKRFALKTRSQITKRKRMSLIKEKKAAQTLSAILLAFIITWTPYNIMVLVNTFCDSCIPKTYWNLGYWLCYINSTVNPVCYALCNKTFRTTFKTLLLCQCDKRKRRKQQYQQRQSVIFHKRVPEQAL
Method: (§2) Male SD strain rats (weighing 300-500 g) were anesthetized with urethane (1 g/kg) and α-chloralose (50 mg/kg) administered intraperitoneally. The airway and carotid artery of each rat were isolated by laryngotomy and cannulated. The carotid artery cannula was used as the test compound administration route. After suppressing spontaneous respiration by hypodermic administration of succinylcholine (5 mg/body), the rats were transferred into Plethysmograph-box (PLYAN, Buxco) and artificially ventilated under the conditions of ventilation rate of 6 ml/kg per breath and respiration rate of 90 breaths/min., using a pulmotor for small animals (Model 681, Harvard Co.). Measurements of air rate and […], calculation of airway resistance and lung compliance and their recording were conducted with lung function analyzer (Model 6, Buxco). After about 10 minutes' stabilization period, the change in airway resistance induced by intravenous administration of acetylcholine (50 μg/kg) was measured twice at 5 minutes' interval. The change in airway resistance induced by the second acetylcholine administration was recorded as the pre-administration of the tested rat (pre-value). Five (5) minutes afterthe second acetylcholine-induced reaction measurement, the test compound or isotonic sodium chloride solution was intravenously administered. Five (5) minutes thereafter, acetylcholine was administered and whereby induced airway resistance change was measured. In this experiment, one-dosage evaluation was conducted per one animal of the tested rats. The changes in acetylcholine-induced airway resistance-increasing reaction (% of pre-value) caused by the tested compound and isotonic sodium chloride solution were calculated by the following Equation 1: […]
(§3) The inhibitory effect (inhibition ratio) of each test compound on the acetylcholine-induced airway resistance-increasing reaction was determined according to the following Equation 2.
(§4) Fifty (50)% inhibition dose (ED50; μg/kg) was calculated from the inhibition ratio of each dose of the tested compound.

[5] = system: muscarinic M3 receptor; assay: as above; design: species or system rat; conditions: for Selectivity M1/M3 (in vivo): ratio of ED50 M1 to ED50 M3, rats i.v.; for Selectivity M2/M3 (in vivo): ratio of ED50 M2 to ED50 M3, rats i.v.
Method: as §2, §3, §4

pKi [1]	Selectivity m1/m3 [1] [times]	Selectivity m2/m3 [1] [times]	Selectivity m4/m3 [1] [times]	Selectivity m5/m3 [1] [times]	pKi [2]	ED50 [3] [mg/kg]	ED50 [4] [mg/kg]	Structure (SMILES)	Selectivity M1/M3 (in vivo) [5] [times]	Selectivity M2/M3 (in vivo) [5] [times]
9.42	370	89	47	84	7.49	1.55	0.015	O=C(CCNC(=O)CNC(=O)CC(c1ccccc1)(c1ccccc1)c1ccccc1)NC[C@H]1CCCN(CC2CCCCC2)C1 [Example 12, N-{2-(3-{((3R)-1-cyclohexylmethyl-3-piperidyl)methyl}amino-3-oxopropyl)amino-2-oxoethyl}-3,3,3-triphenyloropanamide]	>200	100
8.49	>780	250	44	500	5.80	0.114	0.0021	CC[N+]1(CC)CCC[C@H](CNC(=O)[C@H]2CCCN2C(=O)[C@@H]2C[C@@H](O)CN2C(=O)CC(c2ccccc2)(c2ccccc2)c2ccccc2)C1.[Cl-] [Example 133, (3R)-1,1-diethyl-3-({({(2R)-1-({(2S,4R)-4-hydroxy-1-(3,3,3-triphenylpropanoyl)-2-pyrrolidinyl}carbonyl)-2-pyrrolidinyl}carbonyl)amino}methyl)piperidinium chloride]	>143	54
